These results are taken from ChEMBL document CHEMBL3507680, “University of Dundee, Gates Library screen for HepG2 cell viability”.

The data set in a line: Human HepG2 cell viability assay in 384 well format. Format: toxicity, cell-based. Also on record: dose 125 nL, time 70.5 hour; cytotoxicity at 70.5 h: concentration not given beside the values. To be noted: HepG2 cells, read-out: Inhibition.
`CN(C)c1ccc(-c2nnc([C@H]3CCN(C4CCCCC4)C3)o2)cc1`: the cytotoxicity at 70.5 h is -4.32%.

With `COCC(=O)Nc1ccc([C@@H](O)[C@H]2COCC(=O)N2CC(C)C)cc1`, the cytotoxicity at 70.5 h amounted to 8.86%.

Consider `CC(C)(C)c1cc(C[C@H]2CNCC[C@H]2CC(=O)NC2CCCCC2)no1`, for which the cytotoxicity at 70.5 h worked out at 2.18%.

With `CC(C)N1C[C@H](O)C[C@H]1c1nc(-c2ccc(OC(F)(F)F)cc2)no1`, the cytotoxicity at 70.5 h was -3.17%.

As to `O=C(NC[C@H]1OC[C@@H](NC2CCC(F)(F)CC2)[C@@H]1O)C1CCCC1`, the cytotoxicity at 70.5 h was -10.5%.

With `CC(C)N[C@@H]1CO[C@H](CNC(=O)c2ccccc2)[C@H]1O`, the cytotoxicity at 70.5 h was -0.106%.

Regarding `O=C(NC[C@H]1OC[C@@H](NCc2ccccn2)[C@@H]1O)c1ccc(F)cc1`, the cytotoxicity at 70.5 h turned out to be 2.33%.

In the case of `Cc1ccc(S(=O)(=O)NC[C@H]2OC[C@@H](NCc3ccccn3)[C@@H]2O)cc1`, the cytotoxicity at 70.5 h is -6.39%.

With `CC(C)Cc1cc(CC2(NCc3ccccc3Cl)COC2)no1`, the cytotoxicity at 70.5 h turned out to be 4.27%.

In the case of `CC(C)CNC[C@H]1O[C@H](Cc2cc(-c3ccccn3)on2)CC[C@@H]1O`, the cytotoxicity at 70.5 h is 0.841%.

On to `COCCN1C[C@H]2CN(C(=O)c3ccno3)CCN2C1=O`, for which the cytotoxicity at 70.5 h is -6.26%.

For `O[C@H]1COCCN(Cc2cccc(C(F)(F)F)c2)C1`, the cytotoxicity at 70.5 h is -9.83%.

`COCC(=O)NC[C@H]1OC[C@@H](NC2CCC(F)(F)CC2)[C@@H]1O`: the cytotoxicity at 70.5 h is -8.37%.

As to `CC[C@H]1CN(S(=O)(=O)c2ccccc2)CC[C@H]1CC(=O)O`, the cytotoxicity at 70.5 h is 5.41%.

In the case of `O=C([C@@H]1Cc2[nH]cnc2CN1C(=O)NC1CCCCC1)N1CCCC1`, the cytotoxicity at 70.5 h is -7.01%.

`CC(=O)NC[C@@H]1C=C(C)[C@H](CC(=O)NCc2cccnc2)C[C@H]1C(C)C`: the cytotoxicity at 70.5 h is 4.62%.

For the molecule `Fc1ccc(-c2c[nH]c([C@@H]3COCCN3)n2)cc1`, the cytotoxicity at 70.5 h was -9.31%.

As for `CN1CCOC[C@H]1c1nc(-c2ccncc2)c[nH]1`, the cytotoxicity at 70.5 h came out at 1.37%.

As to `O=C(NC[C@H]1OC[C@@H](NCc2ccccc2)[C@@H]1O)Nc1ccccc1`, the cytotoxicity at 70.5 h is -3.94%.

As for `CC(=O)N1CC[C@H]2NC(=O)N(Cc3ccccc3)C(=O)[C@H]21`, the cytotoxicity at 70.5 h was -1.45%.

For the molecule `Nc1ncncc1-c1noc([C@@H]2CCCN2CCCc2ccccc2)n1`, the cytotoxicity at 70.5 h is -6.26%.

Turning to `CC(=O)N[C@H]1CCN2C(=O)[C@@H](Cc3c[nH]c4ccccc34)NC(=O)[C@H]12`, the cytotoxicity at 70.5 h was -13.3%.

For `Cc1cccc(-c2noc([C@@H]3C[C@@H](O)CN3Cc3ccc(CO)o3)n2)c1`, the cytotoxicity at 70.5 h stood at 0.167%.

In the case of `COCc1cc(C[C@@H]2CC[C@H](O)[C@@H](CN(C)C)O2)no1`, the cytotoxicity at 70.5 h was -0.737%.

As for `Cc1ccc(CN2C[C@H]3CN(Cc4ccccc4Cl)CCN3C2=O)cc1`, the cytotoxicity at 70.5 h is -9.42%.

Take `CC(C)(C)CN1CCN2C(=O)N(C3CCCCC3)C[C@H]2C1`: the cytotoxicity at 70.5 h is -11.1%.

For the molecule `CC(C)(C)CN[C@@H]1CO[C@H](CNC(=O)C2CCCC2)[C@H]1O`, the cytotoxicity at 70.5 h is -14%.

With `Cc1ccc(CNC2(Cc3cc(CO)on3)COC2)o1`, the cytotoxicity at 70.5 h was -1.63%.

For the molecule `CC(C)(C)CNC[C@H]1Cn2ccnc2CO1`, the cytotoxicity at 70.5 h was -4.98%.

Consider `O=C(CN1C(=O)CCC1=O)NCc1cc(C2CC2)n(C2CCCC2)n1`, for which the cytotoxicity at 70.5 h was -2.61%.

In the case of `Cn1cnnc1S(=O)(=O)C1CCN(S(=O)(=O)c2ccc(Cl)s2)CC1`, the cytotoxicity at 70.5 h was found to be 11.9%.

Regarding `Cc1c(Cl)cccc1S(=O)(=O)N1CCC(S(=O)(=O)c2nncn2C)CC1`, the cytotoxicity at 70.5 h came out at 1.44%.

In the case of `CNC(=O)CS(=O)(=O)C1CCN(S(=O)(=O)c2ccccc2Cl)CC1`, the cytotoxicity at 70.5 h came to 23.7%.

For `CNC(=O)CS(=O)(=O)C1CCN(S(=O)(=O)c2cccc(C(C)=O)c2)CC1`, the cytotoxicity at 70.5 h is -6.78%.

As for `Cc1csc(C(=O)N2CC(S(=O)(=O)C3CCCCC3)C2)c1`, the cytotoxicity at 70.5 h was -6.45%.

For `O=C(c1cnccn1)N1CC(S(=O)(=O)c2ccc(Cl)cc2)C1`, the cytotoxicity at 70.5 h is -4.33%.

On to `Cc1cc(S(=O)(=O)N2CCC(N3CCC(O)C3)CC2)c(Cl)cc1Cl` (configuration not stated), for which the cytotoxicity at 70.5 h was -4.51%.

With `O=C(Cc1cccs1)Nc1cnn(C2CCOC2)c1` (configuration not stated), the cytotoxicity at 70.5 h was found to be 40.6%.

As for `N#Cc1ccc(S(=O)(=O)Nc2cnn(C3CCOCC3)c2)cc1`, the cytotoxicity at 70.5 h is -1.54%.

With `O=C(O)c1cc(S(=O)(=O)Nc2cnn(C3CCOCC3)c2)ccc1F`, the cytotoxicity at 70.5 h was -6.44%.

As for `COC(CNC(=O)C1CC1)c1ccc(C)s1` (configuration not stated), the cytotoxicity at 70.5 h stood at 19.1%.

With `COC(CNC(=O)C1CCN(S(C)(=O)=O)CC1)c1ccc(C)s1` (configuration not stated), the cytotoxicity at 70.5 h is -12%.

On to `COC(C)(CNS(=O)(=O)c1cccnc1)c1ccccc1F` (configuration not stated), for which the cytotoxicity at 70.5 h was -18.1%.

As for `COC(C)(CNS(=O)(=O)c1cnn(C)c1)c1ccccc1F` (configuration not stated), the cytotoxicity at 70.5 h was -0.155%.

As to `CCC(CNC(=O)C1CC1)(OC)c1ccccc1` (configuration not stated), the cytotoxicity at 70.5 h was 8.11%.

Turning to `CCOCC(=O)NCC(CC)(OC)c1ccccc1` (configuration not stated), the cytotoxicity at 70.5 h is -12.4%.

As to `O=C(NCc1cccs1)C1CCCN(c2cc(-n3cncn3)ncn2)C1` (configuration not stated), the cytotoxicity at 70.5 h was -3.14%.

For `O=C(C1CC1)N1CCN(c2ccc(-n3cncn3)nn2)CC1`, the cytotoxicity at 70.5 h was -3.85%.

With `Cc1ccccc1C(=O)N1CCN(c2ccc(-n3cncn3)nn2)CC1`, the cytotoxicity at 70.5 h is -4.18%.

As to `Nc1cccnc1N1CCC(C(F)(F)F)CC1`, the cytotoxicity at 70.5 h amounted to 14.9%.

For the molecule `Cc1cncc(Oc2ccc(CN)cc2)n1`, the cytotoxicity at 70.5 h was -10.6%.

`Cc1cncc(Oc2ccc(CO)cc2)n1`: the cytotoxicity at 70.5 h is -5.95%.

Regarding `O=C(CC1CC1)N1CCC2(CC1)C(=O)NCCN2Cc1ccccc1`, the cytotoxicity at 70.5 h was 10.6%.

In the case of `CCN1C(=O)C[C@@H]2[C@@H]1CCN2S(=O)(=O)c1ccc(OC)cc1`, the cytotoxicity at 70.5 h came out at 9.29%.

`Cc1ccccc1CNC(=O)N1CC[C@@H]2CN(C)S(=O)(=O)[C@@H]2CC1`: the cytotoxicity at 70.5 h is 17.8%.

As for `Cc1cc(C(=O)N[C@H]2CC[C@@]3(CCC(=O)N3CC3CC3)CC2)no1`, the cytotoxicity at 70.5 h was -15.5%.

With `O=C1CCC2(CCN(S(=O)(=O)c3ccccc3)CC2)N1CC1CC1`, the cytotoxicity at 70.5 h was -12.5%.

Consider `CCN1C(=O)CCC12CCCN(S(=O)(=O)c1cccc(C)c1)CC2` (configuration not stated), for which the cytotoxicity at 70.5 h is -2.78%.

Turning to `CCCS(=O)(=O)N1CCC2(CCCC(=O)N2C)CC1`, the cytotoxicity at 70.5 h was -9.65%.

On to `O=C(C1CCOCC1)N1CCC2(CCC(C(=O)N3CCCC3)O2)CC1` (configuration not stated), for which the cytotoxicity at 70.5 h was -6.14%.

With `O=C(NC[C@H]1OC[C@@H](NC2CCNCC2)[C@@H]1O)C1CCCC1`, the cytotoxicity at 70.5 h is -5.05%.

Take `CN(C)C[C@@H]1CCC[C@@H]2CN(c3nccc(C(F)(F)F)n3)C[C@@H]21`: the cytotoxicity at 70.5 h was found to be 23.3%.

With `CCN1CCC2(CN(C(=O)N(C)C)CC23CCN(CC2CC2)CC3)C1=O` (configuration not stated), the cytotoxicity at 70.5 h is 18.4%.

With `CCN1CCC2(CN(C(C)=O)CC23CCN(CC2CC2)CC3)C1=O` (configuration not stated), the cytotoxicity at 70.5 h is -5.77%.

In the case of `Cc1cnc(N2CCC3(CCCCN3C)C2)nc1` (configuration not stated), the cytotoxicity at 70.5 h was -7.87%.

With `CN(C)C(=O)CN1CC[C@H]2CN(C3CCOCC3)C[C@@H]2C1=O`, the cytotoxicity at 70.5 h is -4.31%.

In the case of `CC(=O)N1CCC2(CC1)CN(CC(C)C)CC21CCNC1=O` (configuration not stated), the cytotoxicity at 70.5 h is 13.6%.
